Measured values as given in patent EP4603107A1, “BIOORTHOGONAL, ANILINIUM BASED CLEAVABLE TETRAZINES” (University of Copenhagen, priority 2024, dated 2025).

Assays:
[1] = Click kinetics, stopped-flow measurement of tetrazine ligation with equatorial TCO-PEG4; settings: PBS (10mM), 37 °C, TCO 1 mM, tetrazine 100 µM, absorbance at 535 nm
Protocol: Nine tetrazines of formula (I) (Table 1) were clicked with equatorial TCO-PEG4 (rel-(1R-4E-pR)-cyclooct-4-en-1-yl (2-(2-(2-(2-hydroxyethoxy)ethoxy)ethoxy)ethyl)carbamate).
Stopped-flow measurements were performed using an SX20-LED stopped-flow spectrophotometer (Applied Photophysics) equipped with a 535 nm LED (optical pathlength 10 mm, full width half-maximum 34 nm) to monitor the characteristic tetrazine visible light absorbance (520-540 nm).
A stock solution of eqTCO-PEG4 in DMSO was prepared at an approximate concentration above 100 mM. The exact concentration was determined by absorbance titration with 3,6-di-2-pyridyl-1,2,4,5-tetrazine. Stock solutions of tetrazines in DMSO were prepared at a concentration of 10 mM. These initial stock solutions were diluted into PBS (10mM) before stopped-flow analysis to reach a final TCO concentration of 1 mM and a tetrazine concentration of 100 µM. The reagent syringes were loaded with solutions of the Tz and eqTCO-PEG4, and the instrument was primed. Subsequent data were collected in triplicate to sextuplicate for each tetrazine. Reactions were conducted at 37 °C and recorded automatically at the time of acquisition. Data sets were analyzed by fitting an exponential decay using Prism 6 (Graphpad) to calculate the observed pseudo-first-order rate constants that were converted into second-order rate constants by dividing with the concentration of the excess TCO compound. Table 1: second rate order constant (M-1s-1) for the ligation between nine tetrazines and equatorial TCO-PEG4 (rel-(1R-4E-pR)-cyclooct-4-en-1-yl (2-(2-(2-(2-hydroxyethoxy)ethoxy)ethoxy)ethyl)carbamate).

[2] = Chemical stability in PBS (HPLC); format: physicochemical; settings: HPLC at RT, 9:1 PBS/MeCN solution, 1.0-1.5 mM Tz, 254 nm; read-out: PBS stability t1/2
Protocol: Ten tetrazines of formula (I) (Table 2) were tested in relation to chemical stability in PBS. The results are shown in Table 2 for the chemical half-life was measured by HPLC at RT, in 9:1 PBS/MeCN solution, using 1.0-1.5 mM Tz (a); based on average peak intensities of the corresponding Tz and the corresponding oxadiazoles (the degradation product), at 254 nm.

Row | SMILES | half-life [2] | second order rate constant [1]
1 | COc1ccc(-c2nnc(C[N+](C)(C)c3ccccc3)nn2)cc1.[Br-] [Compound 23, N-((6-(4-methoxyphenyl)-1,2,4,5-tetrazin-3-yl)methyl)-N,N-dimethylbenzenaminium bromide] | 2.58 ± 0.683 h | 370 M⁻¹ s⁻¹
2 | C[N+](C)(Cc1nnc(-c2ccccc2)nn1)c1ccccc1.[Br-] [Compound 21, N,N-dimethyl-N-((6-phenyl-1,2,4,5-tetrazin-3-yl)methyl)benzenaminium bromide] | 0.9667 ± 0.00833 h | 650 M⁻¹ s⁻¹
3 | COc1cccc(-c2nnc(C[N+](C)(C)c3ccccc3)nn2)c1.[Br-] [Compound 19, N-((6-(3-methoxyphenyl)-1,2,4,5-tetrazin-3-yl)methyl)-N,N-dimethylbenzenaminium bromide] | 0.803 ± 0.00833 h | 790 M⁻¹ s⁻¹
4 | C[N+](C)(Cc1nnc(-c2ccc(O)cc2)nn1)c1ccccc1.[Br-] [Compound 24, N-((6-(4-hydroxyphenyl)-1,2,4,5-tetrazin-3-yl)methyl)-N,N-dimethylbenzenaminium bromide] | 4.95 ± 0.1 h | –
5 | Cc1ccc(-c2nnc(C[N+](C)(C)c3ccccc3)nn2)cc1.[Br-] [Compound 22, N,N-dimethyl-N-((6-(p-tolyl)-1,2,4,5-tetrazin-3-yl)methyl)benzenaminium bromide] | 1.783 ± 0.0167 h | 480 M⁻¹ s⁻¹
6 | C[N+](C)(Cc1nnc(-c2ccc(F)cc2)nn1)c1ccccc1.[Br-] [Compound 20, N-((6-(4-fluorophenyl)-1,2,4,5-tetrazin-3-yl)methyl)-N,N-dimethylbenzenaminium bromide] | 0.797 ± 0.0583 h | 580 M⁻¹ s⁻¹

Now from value to compound, other results behind:

Row | half-life [2] | SMILES | second order rate constant [1]
7 | 1.15 ± 0.1 h | Cc1ccc([N+](C)(C)Cc2nnc(-c3ccccc3)nn2)cc1.[Br-] [Compound 25, N,N,4-trimethyl-N-((6-phenyl-1,2,4,5-tetrazin-3-yl)methyl)benzenaminium bromide] | 620 M⁻¹ s⁻¹
8 | 5.19 ± 1.15 h | C[N+](C)(Cc1nnc(-c2ccccc2)nn1)c1ccc(O)cc1.[Br-] [Compound 27, 4-hydroxy-N,N-dimethyl-N-((6-phenyl-1,2,4,5-tetrazin-3-yl)methyl)benzenaminium bromide] | 620 M⁻¹ s⁻¹
9 | 1.87 ± 0.357 h | COc1ccc([N+](C)(C)Cc2nnc(-c3ccccc3)nn2)cc1.[Br-] [Compound 26, 4-methoxy-N,N-dimethyl-N-((6-phenyl-1,2,4,5-tetrazin-3-yl)methyl)benzenaminium bromide] | 670 M⁻¹ s⁻¹
10 | 9.365 ± 0.0125 h | COc1ccc(-c2nnc(C[N+](C)(C)c3ccc(OC)cc3)nn2)cc1.[Br-] [Compound 29, 4-methoxy-N-((6-(4-methoxyphenyl)-1,2,4,5-tetrazin-3-yl)methyl)-N,N-dimethylbenzenaminium bromide] | 340 M⁻¹ s⁻¹
